In patent US20260365653A1, “IRREVERSIBLE MUTEGFR INHIBITORS” (Bayer Aktiengesellschaft, priority 2022, published 2026):

What was measured:
BA/F3 (insSVD) cells = assay: Ba/F3-EGFR-insSVD cell survival assay (Cell Titer-Glo); assay type: cell-based; settings: Mus musculus, BaF3, 48 h, Table 3a, cell survival, Cell Titer-Glo, with 10 ng/ml EGF, without IL-3
How it was run: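 CellTiter-Glo luminescence read after 48 h compound exposure at 37° C. Cells: IL-3-independent Ba/F3 lines transduced with EGFR-insSVD or EGFR-insSVD T790M, maintained on 10 ng/ml EGF and seeded at 4000 per well.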

[1] = target: T1, mutEGFR (D770_N771insNPG, T790) (Homo sapiens, UniProt P00533, INS770NPG/T790M); assay: mutEGFR (D770_N771insNPG, T790) kinase assay; assay type: biochemical; settings: Table 2a, D770_N771insNPG
T1 construct: exact insNPG construct not described; in-house EGFR proteins were N-terminal GST fusions from baculovirus/insect cells (borders R669-A1210 given only for WT, insSVD, insASV)
Text: The different EGFR proteins used in the biochemical kinase activity inhibition assays were generated inhouse by expression in insect cells using Baculo Virus system and subsequent purification as described in the following paragraphs.
The cDNAs encoding the various protein sequences from human EGFR human (P00533) were optimized for expression in eukaryotic cells and synthesized by the GeneArt Technology at Life Technologies.

[2] = target: T2, mutEGFR (D770_N771insSVD) (Homo sapiens, UniProt P00533, DUP768-770); assay: Exon20-Mutant-EGFR (D770_N771insSVD) kinase assay (TR-FRET); assay type: biochemical; settings: mutEGFR (D770_N771insSVD) kinase assay IC50, Table 2a; D770_N771insSVD; 2 mM ATP
T2 construct: GST-EGFR #3 (SVD between D770 and N771); made in house; host or cells: Sf9 insect cells (baculovirus)
T2 sequence (P00533 with tags, fused parts or gaps DUP768-770): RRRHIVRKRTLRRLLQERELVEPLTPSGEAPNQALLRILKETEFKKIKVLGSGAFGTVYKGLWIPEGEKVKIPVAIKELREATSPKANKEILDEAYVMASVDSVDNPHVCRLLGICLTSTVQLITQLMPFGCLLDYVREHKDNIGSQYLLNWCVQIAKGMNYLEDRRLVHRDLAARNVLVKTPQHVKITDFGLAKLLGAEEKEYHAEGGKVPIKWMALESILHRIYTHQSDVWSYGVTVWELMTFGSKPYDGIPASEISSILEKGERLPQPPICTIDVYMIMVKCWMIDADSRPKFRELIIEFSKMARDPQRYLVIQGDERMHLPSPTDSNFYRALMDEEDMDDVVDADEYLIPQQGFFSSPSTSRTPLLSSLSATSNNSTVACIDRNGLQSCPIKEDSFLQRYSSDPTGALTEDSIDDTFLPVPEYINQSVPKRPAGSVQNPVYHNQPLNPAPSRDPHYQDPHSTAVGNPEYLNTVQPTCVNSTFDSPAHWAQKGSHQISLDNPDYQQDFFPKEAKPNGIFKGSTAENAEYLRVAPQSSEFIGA

T1 sequence (P00533 with tags, fused parts or gaps INS770NPG/T790M limits assumed): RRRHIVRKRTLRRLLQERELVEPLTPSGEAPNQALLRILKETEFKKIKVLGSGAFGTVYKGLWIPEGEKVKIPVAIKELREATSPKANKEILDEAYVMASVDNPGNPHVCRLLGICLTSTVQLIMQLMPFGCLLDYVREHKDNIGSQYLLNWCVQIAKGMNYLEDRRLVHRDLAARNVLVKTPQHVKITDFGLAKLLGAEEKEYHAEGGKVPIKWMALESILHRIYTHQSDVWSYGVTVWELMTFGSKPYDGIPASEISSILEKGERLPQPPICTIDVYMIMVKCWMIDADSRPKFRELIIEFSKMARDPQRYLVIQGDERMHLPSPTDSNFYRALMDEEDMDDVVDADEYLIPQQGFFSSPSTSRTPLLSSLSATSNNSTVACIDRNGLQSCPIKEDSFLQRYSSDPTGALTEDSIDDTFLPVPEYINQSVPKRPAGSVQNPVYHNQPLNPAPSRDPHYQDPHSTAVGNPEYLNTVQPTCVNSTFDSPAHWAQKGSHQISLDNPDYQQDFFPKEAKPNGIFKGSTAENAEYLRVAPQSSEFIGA

Compound | IC50 (BA/F3 (insSVD) cells) [µM] | IC50 [1] [µM] | IC50 [2] [µM]
Cc1cccc(-c2nn3c(c2-c2ccncc2)CN(C(=O)/C=C/CN(C)C)CC3)c1 [Example 157, (2E)-4-(dimethylamino)-1-[2-(3-methylphenyl)-3-(pyridin-4-yl)-6,7-dihydropyrazolo[1,5-a]pyrazin-5(4H)-yl]but-2-en-1-one] | 0.117 | 0.00177 | 0.001
CCc1ccc(-c2nn3c(c2-c2ccncc2)CN(C(=O)/C=C/CN(C)C)CC3)cc1 [Example 158, (2E)-4-(dimethylamino)-1-[2-(4-ethylphenyl)-3-(pyridin-4-yl)-6,7-dihydropyrazolo[1,5-a]pyrazin-5(4H)-yl]but-2-en-1-one] | 0.482 | 0.0164 | 0.00501
CN(C)C/C=C/C(=O)N1CCn2nc(-c3cccc(C#N)c3)c(-c3ccncc3)c2C1 [Example 159, 3-{5-[(2E)-4-(dimethylamino)but-2-enoyl]-3-(pyridin-4-yl)-4,5,6,7-tetrahydropyrazolo[1,5-a]pyrazin-2-yl}benzonitrile] | 0.764 | 0.0387 | 0.0831
COc1ccc(-c2nn3c(c2-c2ccncc2)CN(C(=O)/C=C/CN(C)C)CC3)c(F)c1 [Example 160, (2E)-4-(dimethylamino)-1-[2-(2-fluoro-4-methoxyphenyl)-3-(pyridin-4-yl)-6,7-dihydropyrazolo[1,5-a]pyrazin-5(4H)-yl]but-2-en-1-one] | 0.973 | 0.00658 | 0.00148
CN(C)C/C=C/C(=O)N1CCn2nc(-c3ccc(SC(F)(F)F)cc3)c(-c3ccncc3)c2C1 [Example 161, (2E)-4-(dimethylamino)-1-[3-(pyridin-4-yl)-2-{4-[(trifluoromethyl)sulfanyl]phenyl}-6,7-dihydropyrazolo[1,5-a]pyrazin-5(4H)-yl]but-2-en-1-one] | 1.99 | 0.629 | 0.0929
O=C(/C=C/CN1CCC1)N1CCn2nc(-c3ccc(Cl)cc3)c(-c3ccncc3)c2C1 [Example 162, (2E)-4-(azetidin-1-yl)-1-[2-(4-chlorophenyl)-3-(pyridin-4-yl)-6,7-dihydropyrazolo[1,5-a]pyrazin-5(4H)-yl]but-2-en-1-one] | 0.0438 | 0.00232 | 0.000507
O=C(/C=C/CN1CCCCC1)N1CCn2nc(-c3ccc(Cl)cc3)c(-c3ccncc3)c2C1 [Example 163, (2E)-1-[2-(4-chlorophenyl)-3-(pyridin-4-yl)-6,7-dihydropyrazolo[1,5-a]pyrazin-5(4H)-yl]-4-(piperidin-1-yl) but-2-en-1-one] | 0.0474 | 0.000619 | 0.00016
CN1CCN(C/C=C/C(=O)N2CCn3nc(-c4ccc(Cl)cc4)c(-c4ccncc4)c3C2)CC1 [Example 164, (2E)-1-[2-(4-chlorophenyl)-3-(pyridin-4-yl)-6,7-dihydropyrazolo[1,5-a]pyrazin-5(4H)-yl]-4-(4-methylpiperazin-1-yl) but-2-en-1-one] | 0.155 | 0.00937 | 0.00299
O=C(/C=C/CN1CCOCC1)N1CCn2nc(-c3ccc(Cl)cc3)c(-c3ccncc3)c2C1 [Example 165, (E)-1-(2-(4-chlorophenyl)-3-(pyridin-4-yl)-6,7-dihydropyrazolo[1,5-a]pyrazin-5(4H)-yl)-4-morpholinobut-2-en-1-one] | 0.107 | 0.00243 | 0.000631
CC(C)N(C)C/C=C/C(=O)N1CCn2nc(-c3ccc(Cl)cc3)c(-c3ccncc3)c2C1 [Example 166, (2E)-1-[2-(4-chlorophenyl)-3-(pyridin-4-yl)-6,7-dihydropyrazolo[1,5-a]pyrazin-5(4H)-yl]-4-[isopropyl(methyl)amino]but-2-en-1-one] | 0.0781 | 0.000338 | 0.000169
CC(C)(C)NC/C=C/C(=O)N1CCn2nc(-c3ccc(Cl)cc3)c(-c3ccncc3)c2C1 [Example 167, (2E)-4-(tert-butylamino)-1-[2-(4-chlorophenyl)-3-(pyridin-4-yl)-6,7-dihydropyrazolo[1,5-a]pyrazin-5(4H)-yl]but-2-en-1-one] | 0.0352 | 0.00102 | 0.000256
COC1CCN(C/C=C/C(=O)N2CCn3nc(-c4ccc(Cl)cc4)c(-c4ccncc4)c3C2)CC1 [Example 168, (2E)-1-[2-(4-chlorophenyl)-3-(pyridin-4-yl)-6,7-dihydropyrazolo[1,5-a]pyrazin-5(4H)-yl]-4-(4-methoxypiperidin-1-yl) but-2-en-1-one] | 0.0637 | 0.000692 | 0.000245
COCCN(C)C/C=C/C(=O)N1CCn2nc(-c3ccc(Cl)cc3)c(-c3ccncc3)c2C1 [Example 169, (2E)-1-[2-(4-chlorophenyl)-3-(pyridin-4-yl)-6,7-dihydropyrazolo[1,5-a]pyrazin-5(4H)-yl]-4-[(2-methoxyethyl)(methyl)amino]but-2-en-1-one] | 0.0669 | 0.000385 | 0.00018
O=C(/C=C/CN1CCCC1)N1CCn2nc(-c3ccc(Cl)cc3)c(-c3ccncc3)c2C1 [Example 171, (2E)-1-[2-(4-chlorophenyl)-3-(pyridin-4-yl)-6,7-dihydropyrazolo[1,5-a]pyrazin-5(4H)-yl]-4-(pyrrolidin-1-yl)but-2-en-1-one] | 0.0337 | 0.000406 | 0.000136
O=C(/C=C/CN1CC(F)C1)N1CCn2nc(-c3ccc(Cl)cc3)c(-c3ccncc3)c2C1 [Example 172, (2E)-1-[2-(4-chlorophenyl)-3-(pyridin-4-yl)-6,7-dihydropyrazolo[1,5-a]pyrazin-5(4H)-yl]-4-(3-fluoroazetidin-1-yl) but-2-en-1-one] | 0.0432 | 0.00121 | 0.000203
C=CC(=O)N1CCn2nc(-c3ccc(F)cc3)c(-c3ccnc4[nH]cc(C)c34)c2C1 [Example 173, 1-[2-(4-fluorophenyl)-3-(3-methyl-1H-pyrrolo[2,3-b]pyridin-4-yl)-6,7-dihydropyrazolo[1,5-a]pyrazin-5(4H)-yl]prop-2-en-1-one] | 0.0628 | 0.0255 | 0.157
C=CC(=O)N1CCn2nc(-c3ccc(C(F)(F)F)cc3F)c(-c3ccnc4[nH]cc(C)c34)c2C1 [Example 174, 1-(2-(2-fluoro-4-(trifluoromethyl)phenyl)-3-(3-methyl-1H-pyrrolo[2,3-b]pyridin-4-yl)-6,7-dihydropyrazolo[1,5-a]pyrazin-5(4H)-yl) prop-2-en-1-one] | 0.16 | 2.13 | 0.176
C=CC(=O)N1CCn2nc(-c3ccc(Cl)cc3)c(-c3ccnc4[nH]cc(C)c34)c2C1 [Example 175, 1-[2-(4-chlorophenyl)-3-(3-methyl-1H-pyrrolo[2,3-b]pyridin-4-yl)-6,7-dihydropyrazolo[1,5-a]pyrazin-5(4H)-yl]prop-2-en-1-one] | 0.0635 | 0.0804 | 0.0976
C=CC(=O)N1CCn2nc(-c3cccc(Cl)c3)c(-c3ccnc4[nH]cc(C)c34)c2C1 [Example 177, 1-[2-(3-chlorophenyl)-3-(3-methyl-1H-pyrrolo[2,3-b]pyridin-4-yl)-6,7-dihydropyrazolo[1,5-a]pyrazin-5(4H)-yl]prop-2-en-1-one] | 0.0587 | 0.0178 | 0.0432
C=CC(=O)N1CCn2nc(-c3ccccc3Cl)c(-c3ccnc4[nH]cc(C)c34)c2C1 [Example 179, 1-[2-(2-chlorophenyl)-3-(3-methyl-1H-pyrrolo[2,3-b]pyridin-4-yl)-6,7-dihydropyrazolo[1,5-a]pyrazin-5(4H)-yl]prop-2-en-1-one] | 0.265 | 0.36 | 0.438
C=CC(=O)N1CCn2nc(-c3cc(Cl)ccc3F)c(-c3ccnc4[nH]cc(C)c34)c2C1 [Example 180, 1-[2-(5-chloro-2-fluorophenyl)-3-(3-methyl-1H-pyrrolo[2,3-b]pyridin-4-yl)-6,7-dihydropyrazolo[1,5-a]pyrazin-5(4H)-yl]prop-2-en-1-one] | 0.112 | 0.0615 | 0.158
C=CC(=O)N1CCn2nc(-c3ccc(C#N)cc3)c(-c3ccnc4[nH]cc(C)c34)c2C1 [Example 182, 4-[3-(3-methyl-1H-pyrrolo[2,3-b]pyridin-4-yl)-5-(prop-2-enoyl)-4,5,6,7-tetrahydropyrazolo[1,5-a]pyrazin-2-yl]benzonitrile] | 0.531 | 1.08 | 0.861
Cc1c[nH]c2nccc(-c3c(-c4ccc(Cl)cc4)nn4c3CN(C(=O)/C=C/CN(C)C)CC4)c12 [Example 183, (2E)-1-[2-(4-chlorophenyl)-3-(3-methyl-1H-pyrrolo[2,3-b]pyridin-4-yl)-6,7-dihydropyrazolo[1,5-a]pyrazin-5(4H)-yl]-4-(dimethylamino)but-2-en-1-one] | 0.0656 | 0.217 | 0.0968
Cc1c[nH]c2nccc(-c3c(-c4cccc(Cl)c4)nn4c3CN(C(=O)/C=C/CN(C)C)CC4)c12 [Example 184, (2E)-1-[2-(3-chlorophenyl)-3-(3-methyl-1H-pyrrolo[2,3-b]pyridin-4-yl)-6,7-dihydropyrazolo[1,5-a]pyrazin-5(4H)-yl]-4-(dimethylamino)but-2-en-1-one] | 0.0566 | 0.0528 | 0.155
